Reference: patent publication US20130202629A1, “USES OF PHOSPHOLIPID CONJUGATES OF SYNTHETIC TLR7 AGONISTS” (The Regents of the University of California, priority 2010, published 2013)
“And” between values parts separate entries of the source, which are not always exact repeats. Equal entries are not always repeated. “Also recorded” adds a separate entry of the source.

Tests used:
TLR7 [1] = test: IL-12 and IL-6 induction in BMDM from wild type and TLR7 deficient mice; assay type: cell-based, mouse; conditions: BMDM from TLR7 deficient (TLR7-KO) mice
TLR7 [2] = target: T1, TLR7 (Mus musculus, UniProt P58681); test: In vitro cytokine induction (TNF-alpha, IL-6, IL-12; ELISA) in murine macrophages: RAW264.7 cells and BMDM; assay type: cell-based; conditions: RAW264.7 and BMDM, 18 hours; b281 also in vivo
T1 construct: BMDM were prepared from C57BL/6 and TLR7 deficient mice; endogenous in cells; host or cells: RAW264.7 (ATCC); bone marrow derived macrophages from C57BL/6 mice
T1 sequence (P58681 27-1050): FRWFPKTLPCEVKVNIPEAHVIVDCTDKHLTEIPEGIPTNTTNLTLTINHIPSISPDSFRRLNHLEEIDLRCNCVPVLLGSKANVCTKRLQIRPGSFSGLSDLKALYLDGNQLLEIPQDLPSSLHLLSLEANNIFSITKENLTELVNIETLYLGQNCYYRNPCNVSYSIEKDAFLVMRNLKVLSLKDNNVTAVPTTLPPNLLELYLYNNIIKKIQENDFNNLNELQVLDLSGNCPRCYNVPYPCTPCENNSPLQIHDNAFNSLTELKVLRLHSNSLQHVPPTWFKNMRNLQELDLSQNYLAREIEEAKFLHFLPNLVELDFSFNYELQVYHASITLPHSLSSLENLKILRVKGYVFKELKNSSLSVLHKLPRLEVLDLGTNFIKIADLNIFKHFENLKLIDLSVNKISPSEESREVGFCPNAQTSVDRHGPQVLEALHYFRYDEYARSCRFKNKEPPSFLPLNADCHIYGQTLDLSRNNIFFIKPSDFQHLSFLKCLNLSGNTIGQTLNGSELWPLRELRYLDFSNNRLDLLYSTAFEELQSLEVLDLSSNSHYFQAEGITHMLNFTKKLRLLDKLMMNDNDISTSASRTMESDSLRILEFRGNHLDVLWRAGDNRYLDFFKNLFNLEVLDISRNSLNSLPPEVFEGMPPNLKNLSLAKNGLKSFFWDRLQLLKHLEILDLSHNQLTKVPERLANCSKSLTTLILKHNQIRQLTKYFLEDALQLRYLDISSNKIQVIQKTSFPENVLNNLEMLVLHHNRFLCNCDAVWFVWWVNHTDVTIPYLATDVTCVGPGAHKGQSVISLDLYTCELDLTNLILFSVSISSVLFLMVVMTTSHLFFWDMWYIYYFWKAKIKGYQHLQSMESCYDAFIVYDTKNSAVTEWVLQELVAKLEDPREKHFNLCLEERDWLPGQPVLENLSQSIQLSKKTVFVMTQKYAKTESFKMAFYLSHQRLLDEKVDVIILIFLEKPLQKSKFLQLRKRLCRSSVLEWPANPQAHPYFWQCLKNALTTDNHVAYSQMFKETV
Procedure: In vitro measurements of cytokine induction were performed using the mouse leukemic monocyte macrophage cell line, RAW264.7. […] BMDM were prepared from C57BL/6 and TLR7 deficient mice as described in Wu, C. C et al., “Immunotherapeutic activity of a conjugate of a Toll-like receptor 7 ligand”, Proc. Natl. Acad. Sci. USA, 104:3990 (2007).
In general, RAW264.7 cells or BMDM were incubated with various concentrations of conjugates for 18 hours at 37° C., 5% CO2 and culture supernatants were collected. The levels of cytokines (IL-6, IL-12 or TNF-α in the supernatants were determined by ELISA (BD Biosciences Pharmingen, La Jolla, Calif.) (Cho, H. J et al., “Immunostimulatory DNA-based vaccines induce cytotoxic lymphocyte activity by a T-helper cell-independent mechanism” [see comments], Nat. Biotechnol., 18:509 (2000)), and the results presented in FIGS. 2A-D. Data are mean±SEM of triplicates and are representative of three independent experiments. Minimum detection levels of these cytokines were 15 pg/mL.
TNFα levels were measured (see FIG. 2A) by incubating approximately 1×10^6/mL RAW 264.7 cells with the various conjugates or controls, as described above. IL-6 and IL-12 levels were measured (see FIGS. 2B-D) by incubating 0.5×10^6/mL BMDM with the various conjugates or controls, as described above. […]

TLR7 [3] = target: T2, TLR7 (Homo sapiens, UniProt Q9NYK1); test: Cytokine induction (IL-6, IFNalpha1; Luminex) in human PBMC; assay type: cell-based; conditions: 18 hours, IL-6 (FIG. 3A)
T2 sequence (Q9NYK1 27-1049): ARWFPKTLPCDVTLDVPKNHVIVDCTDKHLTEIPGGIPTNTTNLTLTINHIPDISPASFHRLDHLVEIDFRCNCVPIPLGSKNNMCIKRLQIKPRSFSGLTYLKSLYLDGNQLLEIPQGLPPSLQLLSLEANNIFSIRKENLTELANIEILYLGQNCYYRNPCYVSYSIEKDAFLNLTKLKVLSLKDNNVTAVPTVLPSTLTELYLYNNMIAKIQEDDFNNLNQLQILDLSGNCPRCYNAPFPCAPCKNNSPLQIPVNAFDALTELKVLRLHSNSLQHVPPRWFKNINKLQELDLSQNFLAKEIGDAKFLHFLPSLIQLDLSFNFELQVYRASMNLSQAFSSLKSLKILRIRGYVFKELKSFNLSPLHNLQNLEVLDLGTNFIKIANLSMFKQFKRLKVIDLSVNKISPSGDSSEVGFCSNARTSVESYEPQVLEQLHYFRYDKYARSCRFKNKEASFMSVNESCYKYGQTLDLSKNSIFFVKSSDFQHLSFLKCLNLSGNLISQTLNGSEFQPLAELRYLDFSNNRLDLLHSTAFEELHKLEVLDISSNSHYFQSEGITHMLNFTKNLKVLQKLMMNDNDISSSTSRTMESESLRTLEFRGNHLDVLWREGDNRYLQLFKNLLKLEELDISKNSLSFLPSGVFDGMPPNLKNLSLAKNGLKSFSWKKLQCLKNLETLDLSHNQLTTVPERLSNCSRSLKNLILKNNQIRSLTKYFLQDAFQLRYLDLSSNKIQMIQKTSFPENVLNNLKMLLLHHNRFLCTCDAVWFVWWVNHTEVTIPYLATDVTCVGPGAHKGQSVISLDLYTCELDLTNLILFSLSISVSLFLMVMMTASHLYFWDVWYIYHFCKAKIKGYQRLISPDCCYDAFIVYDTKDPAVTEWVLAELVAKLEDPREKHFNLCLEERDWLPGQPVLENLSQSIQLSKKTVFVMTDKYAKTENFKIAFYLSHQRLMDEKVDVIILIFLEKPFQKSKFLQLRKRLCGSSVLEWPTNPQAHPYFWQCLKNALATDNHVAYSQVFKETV

Solubility = assay type: physicochemical; conditions: aqueous solution / suitable solvents for testing
C57BL/6 mice = test: In vivo kinetics of serum pro-inflammatory cytokine induction after intravenous injection; design: species or system mouse; conditions: i.v., 200 nmol per animal
Procedure: The mice were intravenously injected with TLR7 agonists and their conjugates (40 nmol compound (4a) or 200 nmol SM and compounds (6), (8), or (9) per mouse). Blood samples were collected 2, 4, 6, 24 or 48 hours after injections. Sera were separated and kept at −20° C. until use. The levels of cytokines (e.g. IL-6 and TNF-α in the sera were measured by Luminex bead microassay, and the results presented in FIGS. 4A-B. Data are mean±SEM of five mice and are representative of two independent experiments. The minimum detection levels of IL-6 and TNF-α are 5 pg/mL and 10 pg/mL, respectively.
Cytokine induction by compounds (4a), (6), and (9), were sustained for up to 6 hours.

mice = conditions: cited from earlier work

COCCOc1nc(N)c2nc(O)n(Cc3ccc(C(=O)NCCOCCOCCOCCOCCOCCOCCOCCOCCOCCOCCn4cc(CCC(=O)O)nn4)cc3)c2n1 [Compound 8, 3-(1-(1-(4-((6-amino-8-hydroxy-2-(2-methoxyethoxy)-9H-purin-9-yl)methyl)phenyl)-1-oxo-5,8,11,14,17,20,23,26,29,32-decaoxa-2-azatetratriacontan-34-yl)-1H-1,2,3-triazol-4-yl)propanoic acid]
IL-12 and IL-6 induction in TLR7 deficient BMDM (TLR7 [1]): little or no IL-12 and IL-6
potency of cytokine induction compared to unconjugated TLR7 (SM), in words (TLR7 [2]): less potency compared to the unconjugated TLR7 (SM); also recorded: attenuated
order of TLR7 conjugate potency (TLR7 [3]): (4b)>(6)>(9)>/=SM>(8) and 4b>6>9>SM=8
solubility, in words (Solubility): solubility improves dramatically
serum IL-6 induction (C57BL/6 mice): only a low level of IL-6
serum TNFα induction (C57BL/6 mice; any point post injection): no significant induction of TNFα

COCCOc1nc(N)c2nc(O)n(Cc3ccccc3)c2n1 [SM, 9-benzyl-8-hydroxy-2-(2-methoxyethoxy) adenine, reference compound]
IL-12 and IL-6 induction in TLR7 deficient BMDM (TLR7 [1]): little or no IL-12 and IL-6
solubility, in words (Solubility): insoluble in aqueous solution
anorexic effects and hypothermia in mice (mice; mouse, in vivo): can induce anorexic effects and hypothermia
minimum dose that induced the anorectic reaction (mice; mucosal administration): 50 nmoles per mice
course of serum cytokine levels after injection, in words (C57BL/6 mice): declined rapidly after 2 hours
